ChEMBL document CHEMBL3877260, “Synthesis and evaluation of C9 alkoxy analogues of (-)-stepholidine as dopamine receptor ligands” (Eur J Med Chem, 2017)

What was measured:
D(1A) dopamine receptor [1] = molecular target: T1, D(1A) dopamine receptor (Homo sapiens, UniProt P21728); assay: Displacement of [3H]SCH23390 from human D1 receptor expressed in HEKT cell membranes at 10 uM after 90 mins by microbeta scintillation counting method relative to control
D(1A) dopamine receptor [2] = molecular target: T1, D(1A) dopamine receptor; assay: Displacement of [3H]SCH23390 from human D1 receptor expressed in HEKT cell membranes after 90 mins by microbeta scintillation counting method
D(3) dopamine receptor [3] = molecular target: T2, D(3) dopamine receptor (Homo sapiens, UniProt P35462); assay: Displacement of [3H]N-methylspiperone from human D3 receptor expressed in HEKT cell membranes at 10 uM after 90 mins by microbeta scintillation counting method relative to control
D(2) dopamine receptor [4] = molecular target: T3, D(2) dopamine receptor (Homo sapiens, UniProt P14416); assay: Displacement of [3H]N-methylspiperone from human D2 receptor expressed in HEKT cell membranes at 10 uM after 90 mins by microbeta scintillation counting method relative to control; settings: HEKT cell membranes expressing human D2 receptor, probe [3H]N-methylspiperone
D(3) dopamine receptor [5] = molecular target: T2, D(3) dopamine receptor; assay: Displacement of [3H]N-methylspiperone from human D3 receptor expressed in HEKT cell membranes after 90 mins by microbeta scintillation counting method
D(2) dopamine receptor [6] = molecular target: T3, D(2) dopamine receptor; assay: Displacement of [3H]N-methylspiperone from human D2 receptor expressed in HEKT cell membranes after 90 mins by microbeta scintillation counting method
D(3) dopamine receptor [7] = molecular target: T2, D(3) dopamine receptor; assay: Antagonist activity at human D3 receptor expressed in CHO cells assessed as inhibition of dopamine-induced [35S]GTPgammaS binding; format: functional, cell-based
[8] = Antagonist activity at rhesus monkey D1 receptor expressed in HEK293 cells assessed as inhibition of dopamine-induced [35S]GTPgammaS binding; format: cell-based, Macaca mulatta
[9] = Selectivity index, ratio of Ki for human D2 receptor expressed in HEKT cell membranes to Ki for human D1 receptor expressed in HEKT cell membranes

T1 sequence (P21728 whole entry): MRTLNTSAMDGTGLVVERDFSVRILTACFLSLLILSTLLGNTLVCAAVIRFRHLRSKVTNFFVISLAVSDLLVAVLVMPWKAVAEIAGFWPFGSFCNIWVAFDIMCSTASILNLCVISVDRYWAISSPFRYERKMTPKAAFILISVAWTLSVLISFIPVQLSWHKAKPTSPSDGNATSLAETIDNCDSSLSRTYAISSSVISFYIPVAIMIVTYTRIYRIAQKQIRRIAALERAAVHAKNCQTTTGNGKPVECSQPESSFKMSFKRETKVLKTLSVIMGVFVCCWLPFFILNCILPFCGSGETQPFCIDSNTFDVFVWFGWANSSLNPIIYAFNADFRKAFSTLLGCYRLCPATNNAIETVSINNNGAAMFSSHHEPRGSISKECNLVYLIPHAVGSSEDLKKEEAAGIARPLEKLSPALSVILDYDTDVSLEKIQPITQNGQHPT
T3 sequence (P14416 whole entry): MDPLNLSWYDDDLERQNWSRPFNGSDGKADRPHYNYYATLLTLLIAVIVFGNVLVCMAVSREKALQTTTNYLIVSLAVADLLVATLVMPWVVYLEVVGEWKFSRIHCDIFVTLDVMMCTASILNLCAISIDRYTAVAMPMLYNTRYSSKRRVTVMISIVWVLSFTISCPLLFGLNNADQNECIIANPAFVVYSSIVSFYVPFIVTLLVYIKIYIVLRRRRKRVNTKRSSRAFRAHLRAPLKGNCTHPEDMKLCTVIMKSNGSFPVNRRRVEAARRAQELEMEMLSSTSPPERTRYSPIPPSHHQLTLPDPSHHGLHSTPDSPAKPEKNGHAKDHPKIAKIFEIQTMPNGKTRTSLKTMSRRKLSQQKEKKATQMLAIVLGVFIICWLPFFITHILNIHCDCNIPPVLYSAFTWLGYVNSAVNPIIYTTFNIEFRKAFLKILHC
T2 sequence (P35462 whole entry): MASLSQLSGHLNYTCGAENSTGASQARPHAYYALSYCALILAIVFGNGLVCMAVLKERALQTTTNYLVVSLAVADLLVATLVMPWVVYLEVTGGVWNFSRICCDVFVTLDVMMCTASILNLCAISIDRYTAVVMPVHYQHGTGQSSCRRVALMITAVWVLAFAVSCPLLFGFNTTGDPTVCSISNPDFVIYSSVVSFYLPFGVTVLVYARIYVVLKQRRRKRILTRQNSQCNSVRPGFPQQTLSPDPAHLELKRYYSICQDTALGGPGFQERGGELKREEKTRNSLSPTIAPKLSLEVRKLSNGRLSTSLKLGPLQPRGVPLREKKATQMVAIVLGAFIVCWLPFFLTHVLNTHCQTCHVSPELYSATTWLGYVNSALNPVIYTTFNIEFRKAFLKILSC

| SMILES | inhibition (D(1A) dopamine receptor [1]) [%] | Ki (D(1A) dopamine receptor [2]) [nM] | inhibition (D(3) dopamine receptor [3]) [%] | inhibition at 1.5 h, 10 µM (D(2) dopamine receptor [4]) [%] | Ki (D(3) dopamine receptor [5]) [nM] | Ki (D(2) dopamine receptor [6]) [nM] | Ke (D(3) dopamine receptor [7]) [nM] | IC50 [8] [nM] | Ratio Ki [9] |
| --- | --- | --- | --- | --- | --- | --- | --- | --- | --- |
| COCCOc1c(O)cc(Br)c2c1CN1CCc3cc(OC)c(O)cc3[C@@H]1C2 | > 50 | 4.2 | > 50 | < 50 | 726 |  |  |  |  |
| COCCOc1c(O)ccc2c1CN1CCc3cc(OC)c(O)cc3[C@@H]1C2 | > 50 | 7.7 | > 50 | > 50 |  | 18 |  |  |  |
| CCCCCCOc1c(O)ccc2c1CN1CCc3cc(OC)c(O)cc3[C@@H]1C2 | > 50 | 77 | > 50 | < 50 | 195 |  |  |  |  |
| CCOc1c(O)ccc2c1CN1CCc3cc(OC)c(O)cc3[C@@H]1C2 | > 50 | 5.3 | > 50 | < 50 | 106 |  | 3.15 | 416 |  |
| CCCCOc1c(O)ccc2c1CN1CCc3cc(OC)c(O)cc3[C@@H]1C2 |  |  | > 50 | < 50 |  |  |  |  |  |
| COc1cc2c(cc1O)[C@@H]1Cc3ccc(O)c(OC)c3CN1CC2 [STEPHOLIDINE] | > 50 |  | > 50 | > 50 |  |  |  |  |  |
| CCC(C)Oc1c(O)ccc2c1CN1CCc3cc(OC)c(O)cc3[C@@H]1C2 (some centres undefined) |  | 65 |  | > 50 |  | 104 |  |  |  |
| CCCCCOc1c(O)ccc2c1CN1CCc3cc(OC)c(O)cc3[C@@H]1C2 |  |  | > 50 | > 50 | 3210 | 23 |  |  |  |
| CCOc1c(O)cc(Br)c2c1CN1CCc3cc(OC)c(O)cc3[C@@H]1C2 | > 50 | 1.3 | > 50 | < 50 | 373 |  |  |  | >10 |
| CCCOc1c(O)ccc2c1CN1CCc3cc(OC)c(O)cc3[C@@H]1C2 | > 50 | 12 | > 50 | > 50 | 175 | 41 |  |  |  |
| CCCCOc1c(O)cc(Br)c2c1CN1CCc3cc(OC)c(O)cc3[C@@H]1C2 | > 50 | 2.3 | > 50 | > 50 |  | 107 |  |  |  |
| CCC(C)Oc1c(O)cc(Br)c2c1CN1CCc3cc(OC)c(O)cc3[C@@H]1C2 (some centres undefined) | > 50 | 9.7 | > 50 | > 50 | 2070 | 331 |  |  |  |
| CCCOc1c(O)cc(Br)c2c1CN1CCc3cc(OC)c(O)cc3[C@@H]1C2 | > 50 | 2.2 | > 50 | > 50 |  | 70 |  |  |  |
| CCCCCCOc1c(O)cc(Br)c2c1CN1CCc3cc(OC)c(O)cc3[C@@H]1C2 | > 50 | 68 | > 50 | > 50 | 3170 | 731 |  |  | >10 |
| CCCCCOc1c(O)cc(Br)c2c1CN1CCc3cc(OC)c(O)cc3[C@@H]1C2 | > 50 | 32 | > 50 | > 50 |  | 398 |  |  |  |
